The target of one assay is T1, ULK2 kinase (Homo sapiens, UniProt Q8IYT8).
T1 construct: purchased Eurofins 14-772
In words: Biochemical assay for ULK2 (coupled pyruvate kinase/lactate dehydrogenase assay). The note with it: 9.7 nM ULK2 (residues 1-306, GST and His tag), myelin basic protein, 1 mM ATP; read-out: ULK2.2. In outline:
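Continuous PK/LDH-coupled NADH oxidation assay: 9.7 nM ULK2, 0.25 mg/mL myelin basic protein, 1 mM ATP, pH 7.5 Tris/15 mM MgCl2 buffer, 1% DMSO, 30° C. A340 followed 6 h; rate from 2-3 h window converted to % inhibition, IC50 from four-parameter fit.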

In another assay the test system is ULK kinase. In words: pATG13 levels of mutant HRas T24 cells after treatment with ULK inhibitors in combination with trametinib (ELISA). The format is cell-based, human. The conditions noted are these: T24 urinary bladder cancer cells (mutant HRas), 250 nM trametinib, overnight, pS318-ATG13. How it is done:
T24 human urinary bladder cancer cells (25000 cells/well) were added to a 96-well tissue-culture treated plate in 100 μL of pre-warmed DMEM medium supplemented with 10% characterized fetal bovine serum (Invitrogen, Carlsbad, Calif.), 100 units/mL penicillin G, and 100 μg/mL streptomycin and allowed to grow overnight at 37° C., 5% CO2, and 95% humidity. The following day, 100 μL of media containing trametinib or DMSO as a control was added to wells. […] A dose response of a test compound (0.5 μL per well) was added. DMSO (0.5 μL) was added to control wells. The plate was briefly shaken to mix wells and then incubated at 37° C. overnight. The next day, the media was aspirated and cells were washed with Dulbecco's Phosphate Buffered Saline (Gibco). Cells were lysed using MPER lysis buffer (Pierce, Rockford, Ill.) containing Halt Phosphatase and Protease Inhibitors (Pierce, Rockford, Ill.) and Phosphatase inhibitor cocktail 2 (Sigma, St. Louis, Mo.) at 4° C. for 10 minutes with shaking.
Plate wells were washed with ELISA wash buffer. Cell lysate was added to wells and incubated at room temperature for 2 hours. Plate wells were washed with ELISA wash buffer. […] Plate wells were washed with ELISA wash buffer. […] Plate wells were washed with ELISA wash buffer. […] The reaction was stopped with 2N Sulfuric Acid. The plate was analyzed at on a plate reader measuring absorbance at 450 nm and 540 nm (background). Signal was calculated by first subtracting the background absorbance at 540 nm from the absorbance at 450 nm for each well. Next, the background corrected absorbance at 450 nm from blank wells was subtracted from test wells. Data was compared to control wells to determine % ATG13 phosphorylation. GraphPad Prism was used to calculate IC50 values.
(ELISA stands for enzyme-linked immunosorbent assay.)

The target in assay [1] is T2, ULK1 kinase (Homo sapiens, UniProt O75385, E37A/K38A).
T2 construct: purchased Beryllium
T2 sequence (O75385 1-283 E37A/K38A): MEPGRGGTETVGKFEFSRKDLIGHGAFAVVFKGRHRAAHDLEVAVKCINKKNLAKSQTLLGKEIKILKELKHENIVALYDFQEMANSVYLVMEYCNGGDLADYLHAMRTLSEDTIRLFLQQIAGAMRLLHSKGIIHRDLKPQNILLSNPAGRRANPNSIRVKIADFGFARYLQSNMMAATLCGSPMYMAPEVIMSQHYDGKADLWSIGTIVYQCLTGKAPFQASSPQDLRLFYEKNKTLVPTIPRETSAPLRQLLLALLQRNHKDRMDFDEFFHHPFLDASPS
The assay is described as follows: Biochemical assay for ULK1.3 (coupled pyruvate kinase/lactate dehydrogenase assay, peptide substrate). The conditions noted are these: 0.1 nM ULK1 (residues 1-283), 1 mM ATP. In outline:
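ULK1.3 activity was followed by continuous decrease in 340 nm absorbance over 6 h at 30 °C with 1% DMSO final. Rates were taken from the 2–3 h window and converted to percent inhibition against no-compound and known-inhibitor controls. IC50 values came from curve fitting.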

The target in assay [2] is T3, ULK1 kinase (Homo sapiens, UniProt O75385).
T3 construct: purchased Eurofins 14-959
T3 sequence (O75385 with tags, fused parts or gaps): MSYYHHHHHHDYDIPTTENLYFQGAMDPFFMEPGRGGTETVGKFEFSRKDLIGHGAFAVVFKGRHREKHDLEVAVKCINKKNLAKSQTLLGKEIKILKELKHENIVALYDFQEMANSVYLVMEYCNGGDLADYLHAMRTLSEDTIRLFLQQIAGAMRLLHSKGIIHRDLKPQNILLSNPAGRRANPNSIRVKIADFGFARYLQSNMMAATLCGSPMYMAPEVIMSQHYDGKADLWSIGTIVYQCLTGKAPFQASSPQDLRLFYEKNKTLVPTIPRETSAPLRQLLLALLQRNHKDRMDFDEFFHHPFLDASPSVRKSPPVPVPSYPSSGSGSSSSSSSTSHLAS
In words: Biochemical assay for ULK1.2 (coupled pyruvate kinase/lactate dehydrogenase assay). The note with it: 19 nM ULK1 (residues 1-314, His tag), myelin basic protein, 1 mM ATP. In outline: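 Coupled assay followed the fall in absorbance at 340 nm continuously for 6 hours at 30 °C, with compounds serially diluted at 1% DMSO final. Rates from the 2–3 h window were normalised to no-compound and reference-inhibitor controls. IC50 came from a four-parameter sigmoidal fit.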

pIC50: −log10 of the molar value.

T1 sequence (Q8IYT8 with tags, fused parts or gaps): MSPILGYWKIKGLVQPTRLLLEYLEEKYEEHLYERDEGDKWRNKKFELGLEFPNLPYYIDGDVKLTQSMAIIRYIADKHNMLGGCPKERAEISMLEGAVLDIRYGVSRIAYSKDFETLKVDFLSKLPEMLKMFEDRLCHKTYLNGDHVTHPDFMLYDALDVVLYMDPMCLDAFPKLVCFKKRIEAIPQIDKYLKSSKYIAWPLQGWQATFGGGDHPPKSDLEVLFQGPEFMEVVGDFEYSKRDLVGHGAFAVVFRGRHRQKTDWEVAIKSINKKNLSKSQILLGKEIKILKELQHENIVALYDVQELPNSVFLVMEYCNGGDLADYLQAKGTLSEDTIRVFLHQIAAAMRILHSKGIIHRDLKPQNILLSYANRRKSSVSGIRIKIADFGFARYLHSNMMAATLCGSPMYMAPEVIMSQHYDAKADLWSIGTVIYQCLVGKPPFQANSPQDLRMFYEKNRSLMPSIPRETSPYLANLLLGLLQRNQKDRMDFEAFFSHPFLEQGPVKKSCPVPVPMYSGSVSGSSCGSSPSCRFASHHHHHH

For `CN1CCN(c2ccc(Nc3ncc(C(F)(F)F)c(NCCCN4CCCCC4=O)n3)c(C3CC3)c2)CC1` [Example 14], the pIC50 was 7.60 to 9.00 at ULK2 kinase, 7.00 to 8.00 in the assay with ULK kinase, 7.60 to 9.00 at ULK1 kinase [1] and 7.60 to 9.00 against ULK1 kinase [2].

For the compound `CCc1cc(N2CCN(C)CC2)ccc1Nc1ncc(C(F)(F)F)c(NCCCN2CCCOC2=O)n1` [Example 39], the pIC50 on ULK2 kinase is 7.00 to 7.60; with ULK kinase, 7.00 to 8.00; at ULK1 kinase [1], 7.60 to 9.00; at ULK1 kinase [2] it was 7.60 to 9.00.

`CN1CCN(c2ccc(Nc3ncc(C(F)(F)F)c(NCCCN4CCCOC4=O)n3)c(C3CC3)c2)CC1` [Example 41]: the pIC50 at ULK2 kinase was 7.00 to 7.60; in the assay on ULK kinase it was 7.00 to 8.00; on ULK1 kinase [1] it was 7.60 to 9.00.

Regarding `CCc1cc(N2CCNCC2)ccc1Nc1ncc(C(F)(F)F)c(NCCCN2CCCOC2=O)n1` [Example 46], the pIC50 at ULK2 kinase is 7.00 to 7.60; in the assay with ULK kinase it was 6.52 to 7.00; against ULK1 kinase [1], 7.60 to 9.00.

For `CN1CCN(c2ccc(Nc3ncc(C(F)(F)F)c(NCCCN4CCCOCC4=O)n3)c(C3CC3)c2)CC1` [Example 52], the results for the pIC50 on ULK2 kinase, on ULK1 kinase [1] and against ULK1 kinase [2] were 7.00 to 7.60, 7.60 to 9.00 and 7.60 to 9.00, respectively.

Consider `CN1CCN(c2ccc(Nc3ncc(Cl)c(NCCCN4CCCOCC4=O)n3)c(C3CC3)c2)CC1` [Example 55], for which the pIC50 at ULK2 kinase and at ULK1 kinase [2] was 6.30 to 7.00 each time.

`CN1CCN(c2ccc(Nc3ncc(C(F)(F)F)c(NCCCN4CCOCCC4=O)n3)c(C3CC3)c2)CC1` [Example 70]: the pIC50 on ULK2 kinase was 7.00 to 7.60; in the assay with ULK kinase it was 7.00 to 8.00; at ULK1 kinase [1] it was 7.60 to 9.00; against ULK1 kinase [2] it was 7.60 to 9.00.

As for `CCc1cc(N2CC3CCC(C2)N3C)ccc1Nc1ncc(C(F)(F)F)c(NCCCN2CCOCCC2=O)n1` [Example 74], the pIC50 at ULK2 kinase was 7.60 to 9.00; in the assay with ULK kinase, 7.00 to 8.00; at ULK1 kinase [1], 7.60 to 9.00.

With `CCc1cc(N2CCN(C)CC2)ccc1Nc1ncc(Br)c(NCCCN2CCOCCC2=O)n1` [Example 76], the pIC50 in the assay on ULK kinase is 7.00 to 8.00; on ULK1 kinase [1], 7.60 to 9.00; at ULK1 kinase [2], 7.60 to 9.00.

`CCc1cc(N2CCNCC2)ccc1Nc1ncc(C(F)(F)F)c(NCCCN2CCOCCC2=O)n1` [Example 84]: the figures for the pIC50 at ULK2 kinase, in the assay with ULK kinase and on ULK1 kinase [1] were 7.00 to 7.60, 6.52 to 7.00 and 7.60 to 9.00, respectively.

Consider `CCc1cc(N2CCN(C)CC2)c(F)cc1Nc1ncc(C(F)(F)F)c(NCCCN2CCOCCC2=O)n1` [Example 86], for which the pIC50 with ULK kinase was 6.52 to 7.00; against ULK1 kinase [1], 7.00 to 7.60.

As for `O=C1OCCCN1CCCNc1nc(Nc2ccc(N3CCNCC3)cc2C2CC2)ncc1C(F)(F)F` [Example 99], the values for the pIC50 at ULK2 kinase, in the assay on ULK kinase and against ULK1 kinase [1] were 7.00 to 7.60, 6.52 to 7.00 and 7.60 to 9.00, respectively.
